Source: article PMC3930694, “Small Molecule Inhibitors Target the Tissue Transglutaminase and Fibronectin Interaction” (PLoS ONE, 2014)

Molecular target: T1, Tissue transglutaminase (TG2) (Homo sapiens, UniProt P21980)
T1 construct: gene TGM2; Full length TG2, His6-tagged, expressed in E. coli
Assay: competition ELISA with purified His6-TG2 and biotinylated FN42 (FN42 saturation curves, Lineweaver-Burk); AlphaLISA
Format: binding

T1 sequence (P21980 whole entry): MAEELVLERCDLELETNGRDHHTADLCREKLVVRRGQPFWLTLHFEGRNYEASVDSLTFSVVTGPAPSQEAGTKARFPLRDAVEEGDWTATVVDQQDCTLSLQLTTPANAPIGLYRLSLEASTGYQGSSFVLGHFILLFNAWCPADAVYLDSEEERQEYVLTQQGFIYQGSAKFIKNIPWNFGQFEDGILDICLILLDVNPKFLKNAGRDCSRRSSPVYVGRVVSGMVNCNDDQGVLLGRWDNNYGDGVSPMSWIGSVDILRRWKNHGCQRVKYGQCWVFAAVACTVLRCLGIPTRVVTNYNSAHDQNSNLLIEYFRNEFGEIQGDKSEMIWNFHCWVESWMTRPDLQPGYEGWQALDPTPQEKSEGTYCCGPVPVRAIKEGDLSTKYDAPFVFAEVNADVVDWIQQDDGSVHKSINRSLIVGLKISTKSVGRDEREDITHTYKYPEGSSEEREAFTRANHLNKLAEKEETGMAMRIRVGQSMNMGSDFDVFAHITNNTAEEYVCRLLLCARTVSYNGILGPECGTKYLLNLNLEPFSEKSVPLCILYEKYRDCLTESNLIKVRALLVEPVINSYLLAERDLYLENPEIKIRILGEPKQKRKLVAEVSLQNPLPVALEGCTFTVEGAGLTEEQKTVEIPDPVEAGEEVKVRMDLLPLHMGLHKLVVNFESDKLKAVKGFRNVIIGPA
T1 sequence (P02751 32-2477 partner): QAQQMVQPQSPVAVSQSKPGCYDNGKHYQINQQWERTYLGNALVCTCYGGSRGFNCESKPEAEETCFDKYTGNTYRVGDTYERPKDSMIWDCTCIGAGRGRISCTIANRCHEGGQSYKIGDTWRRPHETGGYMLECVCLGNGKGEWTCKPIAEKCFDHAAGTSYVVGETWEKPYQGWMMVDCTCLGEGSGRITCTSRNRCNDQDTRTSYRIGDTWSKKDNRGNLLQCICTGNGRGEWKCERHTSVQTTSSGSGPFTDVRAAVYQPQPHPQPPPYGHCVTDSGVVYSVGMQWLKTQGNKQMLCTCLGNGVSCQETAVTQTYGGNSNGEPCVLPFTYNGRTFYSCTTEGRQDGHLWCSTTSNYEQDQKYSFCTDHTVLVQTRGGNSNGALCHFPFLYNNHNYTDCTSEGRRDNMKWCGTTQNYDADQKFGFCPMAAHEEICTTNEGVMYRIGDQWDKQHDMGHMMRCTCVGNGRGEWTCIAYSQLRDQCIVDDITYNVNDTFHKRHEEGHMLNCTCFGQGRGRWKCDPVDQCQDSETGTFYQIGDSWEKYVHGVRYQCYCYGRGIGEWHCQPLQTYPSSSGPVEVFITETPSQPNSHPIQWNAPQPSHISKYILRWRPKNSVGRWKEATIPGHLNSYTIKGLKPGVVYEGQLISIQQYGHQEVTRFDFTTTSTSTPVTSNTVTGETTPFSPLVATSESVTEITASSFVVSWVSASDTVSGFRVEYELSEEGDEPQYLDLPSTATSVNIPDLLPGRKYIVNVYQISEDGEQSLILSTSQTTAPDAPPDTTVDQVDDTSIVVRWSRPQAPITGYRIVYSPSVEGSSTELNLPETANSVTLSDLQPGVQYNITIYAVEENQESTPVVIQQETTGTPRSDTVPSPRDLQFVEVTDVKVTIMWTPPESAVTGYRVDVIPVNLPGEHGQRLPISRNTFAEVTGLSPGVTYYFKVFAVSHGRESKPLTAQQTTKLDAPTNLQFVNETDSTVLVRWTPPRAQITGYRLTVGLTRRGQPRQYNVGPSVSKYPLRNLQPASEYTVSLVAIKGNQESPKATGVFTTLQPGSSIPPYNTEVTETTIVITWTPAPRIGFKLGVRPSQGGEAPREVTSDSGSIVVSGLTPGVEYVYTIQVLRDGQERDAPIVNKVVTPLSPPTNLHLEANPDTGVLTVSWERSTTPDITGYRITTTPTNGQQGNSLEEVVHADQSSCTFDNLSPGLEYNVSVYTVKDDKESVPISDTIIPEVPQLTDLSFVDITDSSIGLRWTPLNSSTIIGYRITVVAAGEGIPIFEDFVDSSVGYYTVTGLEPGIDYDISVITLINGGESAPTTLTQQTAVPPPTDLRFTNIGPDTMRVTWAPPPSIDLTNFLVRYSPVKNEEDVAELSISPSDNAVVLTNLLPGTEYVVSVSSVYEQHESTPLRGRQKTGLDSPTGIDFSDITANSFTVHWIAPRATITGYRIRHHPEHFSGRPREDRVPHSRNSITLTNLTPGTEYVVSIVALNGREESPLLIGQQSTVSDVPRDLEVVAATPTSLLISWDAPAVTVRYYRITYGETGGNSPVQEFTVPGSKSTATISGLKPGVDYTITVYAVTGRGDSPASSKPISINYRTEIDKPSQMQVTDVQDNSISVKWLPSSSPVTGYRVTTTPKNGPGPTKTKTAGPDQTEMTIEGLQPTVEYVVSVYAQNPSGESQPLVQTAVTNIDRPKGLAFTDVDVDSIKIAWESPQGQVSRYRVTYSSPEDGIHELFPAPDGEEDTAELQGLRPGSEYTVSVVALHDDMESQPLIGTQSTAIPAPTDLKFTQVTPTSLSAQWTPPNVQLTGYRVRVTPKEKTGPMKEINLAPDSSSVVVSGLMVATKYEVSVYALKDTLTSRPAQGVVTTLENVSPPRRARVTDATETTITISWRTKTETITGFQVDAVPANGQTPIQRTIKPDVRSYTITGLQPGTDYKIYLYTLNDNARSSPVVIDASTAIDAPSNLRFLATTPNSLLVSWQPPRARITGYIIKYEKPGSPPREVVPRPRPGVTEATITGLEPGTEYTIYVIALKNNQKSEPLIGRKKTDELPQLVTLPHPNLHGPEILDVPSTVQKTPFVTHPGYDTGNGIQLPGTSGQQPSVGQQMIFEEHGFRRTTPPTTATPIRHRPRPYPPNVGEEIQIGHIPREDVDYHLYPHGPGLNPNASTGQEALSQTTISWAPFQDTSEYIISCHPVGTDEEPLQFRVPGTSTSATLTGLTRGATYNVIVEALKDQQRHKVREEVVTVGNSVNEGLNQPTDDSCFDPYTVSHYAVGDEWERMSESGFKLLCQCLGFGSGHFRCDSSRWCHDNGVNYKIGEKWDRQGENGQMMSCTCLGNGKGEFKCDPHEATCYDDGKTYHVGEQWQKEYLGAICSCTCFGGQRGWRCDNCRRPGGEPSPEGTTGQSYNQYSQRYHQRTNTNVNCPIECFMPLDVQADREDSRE

- Ki: 4.15 µM
Compound: COc1ccc(Cl)cc1C(=O)Nc1ccc(Nc2nc(C)cc(N(C)C)n2)cc1 [TG53]
